The source of these data is ChEMBL document CHEMBL5465560, “Selectivity Literature for EUbOPEN Chemogenomic Library” (2024).

In test [1] the target is Vascular endothelial growth factor receptor 2 (Homo sapiens, UniProt P35968). Nature of the test: Selectivity interaction (Kinase panel (Z-LYTE Assay)) EUB0001632a KDR. To be noted: at 10 µM.
Test [2] deals with Epidermal growth factor receptor (Homo sapiens), P00533 [L858R,T790M]. Conditions: at 10 µM.
In test [3] the target is RAC-gamma serine/threonine-protein kinase (Homo sapiens, UniProt Q9Y243). To be noted: at 10 µM.
For test [4], the target named is cAMP-dependent protein kinase catalytic subunit alpha (Homo sapiens, UniProt P17612). Nature of the test: Selectivity interaction (KinomeScan (DiscoverX)) EUB0000666a PRKACA. Conditions: at 10 µM.
Test [5] deals with Calcium/calmodulin-dependent protein kinase kinase 2 (Homo sapiens) (UniProt Q96RR4). Nature of the test: Selectivity interaction (KinomeScan (DiscoverX)) EUB0000666a CAMKK2. Conditions: at 10 µM.
The target in test [6] is Death-associated protein kinase 3 (Homo sapiens) (UniProt O43293). Nature of the test: Selectivity interaction (KinomeScan (DiscoverX)) EUB0001619a DAPK3. Conditions: at 1 µM.
Test [7] has as its target Cyclin-dependent kinase 5 (Homo sapiens, UniProt Q00535). Nature of the test: Selectivity interaction (ActivX KiNativ screen (ex vivo kinase selectivity in human PBMCs)) EUB0001619a CDK5. Conditions: PBMC, at 1 µM. It counts as cell-based.
Test [8] can be described thus: Selectivity interaction (ActivX KiNativ screen (kinase selectivity in THP-1 cell lysates)) EUB0000639a STLK6. To be noted: Selectivity number of off-targets 5; Selectivity number of targets 283; Source Knowledge https://pubmed.ncbi.nlm.nih.gov/28498658/; at 5 µM.
The target in test [9] is RAF proto-oncogene serine/threonine-protein kinase (Homo sapiens) (UniProt P04049). Nature of the test: Selectivity interaction (Kinase screening (Upstate/Millipore)) EUB0000604a RAF1.
The test system of test [10] is Tyrosine-protein kinase ABL1 (Homo sapiens), P00519 [T315I]. Conditions: at 10 µM.
In test [11] the target is Serine/threonine-protein kinase Chk2 (Homo sapiens) (UniProt O96017). Nature of the test: Selectivity interaction (Millipore kinase profiler) EUB0000124b CHEK2. To be noted: at 10 µM.
In test [12] the target is T1, Mitogen-activated protein kinase 12 (Homo sapiens) (UniProt P53778).
T1 sequence (whole entry): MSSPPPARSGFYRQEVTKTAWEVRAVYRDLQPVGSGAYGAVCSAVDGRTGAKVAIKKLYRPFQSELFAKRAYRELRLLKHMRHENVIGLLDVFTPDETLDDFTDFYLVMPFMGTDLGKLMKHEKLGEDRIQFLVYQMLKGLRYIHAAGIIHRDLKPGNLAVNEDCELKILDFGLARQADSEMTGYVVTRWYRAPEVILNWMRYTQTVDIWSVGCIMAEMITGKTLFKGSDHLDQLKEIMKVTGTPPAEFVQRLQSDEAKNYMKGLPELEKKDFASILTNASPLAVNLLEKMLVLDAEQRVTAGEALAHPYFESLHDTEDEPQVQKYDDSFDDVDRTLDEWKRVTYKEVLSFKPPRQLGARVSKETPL
Nature of the test: Selectivity interaction (KinomeScan (DiscoverX)) EUB0001049a MAPK12. To be noted: at 1 µM.

For test [13], the target named is Tyrosine-protein kinase FRK (Homo sapiens) (UniProt P42685). Nature of the test: Selectivity interaction (KinomeScan (DiscoverX)) EUB0000695a FRK. Conditions: at 100 nM.
Test [14] concerns the target T2, Cytoplasmic tyrosine-protein kinase BMX (Homo sapiens) (UniProt P51813).
T2 sequence (whole entry): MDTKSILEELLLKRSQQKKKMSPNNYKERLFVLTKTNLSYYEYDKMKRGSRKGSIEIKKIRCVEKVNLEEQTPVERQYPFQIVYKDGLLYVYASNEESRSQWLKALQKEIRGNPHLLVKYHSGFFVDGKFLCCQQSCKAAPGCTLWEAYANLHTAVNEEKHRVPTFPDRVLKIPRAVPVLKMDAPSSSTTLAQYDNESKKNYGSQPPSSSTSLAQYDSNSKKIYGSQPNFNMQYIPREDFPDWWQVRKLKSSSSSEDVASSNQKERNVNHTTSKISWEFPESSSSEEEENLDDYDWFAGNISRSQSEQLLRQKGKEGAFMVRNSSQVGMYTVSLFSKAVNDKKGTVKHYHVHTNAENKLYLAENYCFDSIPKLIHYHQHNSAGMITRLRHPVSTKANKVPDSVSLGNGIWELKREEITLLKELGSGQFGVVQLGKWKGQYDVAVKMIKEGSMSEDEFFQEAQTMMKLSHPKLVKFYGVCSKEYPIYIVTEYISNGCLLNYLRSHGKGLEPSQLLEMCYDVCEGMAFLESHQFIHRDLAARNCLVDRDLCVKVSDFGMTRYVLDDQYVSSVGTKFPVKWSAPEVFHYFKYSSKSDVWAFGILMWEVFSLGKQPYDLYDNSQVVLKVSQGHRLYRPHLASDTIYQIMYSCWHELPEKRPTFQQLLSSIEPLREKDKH
Nature of the test: Selectivity interaction (KinomeScan (DiscoverX)) EUB0000045b BMX.

Sequence of RAC-gamma serine/threonine-protein kinase (Q9Y243 whole entry): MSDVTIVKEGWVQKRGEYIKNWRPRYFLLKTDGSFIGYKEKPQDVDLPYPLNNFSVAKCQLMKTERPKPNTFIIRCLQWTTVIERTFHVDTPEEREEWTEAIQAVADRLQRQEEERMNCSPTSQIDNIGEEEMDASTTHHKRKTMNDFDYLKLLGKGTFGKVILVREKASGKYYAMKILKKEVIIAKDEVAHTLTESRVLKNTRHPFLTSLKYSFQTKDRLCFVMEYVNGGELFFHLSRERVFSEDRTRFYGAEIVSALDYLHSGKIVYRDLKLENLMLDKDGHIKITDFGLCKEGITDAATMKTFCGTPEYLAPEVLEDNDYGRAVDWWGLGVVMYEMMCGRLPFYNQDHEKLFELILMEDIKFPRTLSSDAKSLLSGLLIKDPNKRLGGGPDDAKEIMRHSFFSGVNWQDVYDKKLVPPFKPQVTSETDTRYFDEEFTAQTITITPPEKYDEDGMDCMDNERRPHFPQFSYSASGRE
Sequence of Death-associated protein kinase 3 (Homo sapiens) (O43293 whole entry, looked up): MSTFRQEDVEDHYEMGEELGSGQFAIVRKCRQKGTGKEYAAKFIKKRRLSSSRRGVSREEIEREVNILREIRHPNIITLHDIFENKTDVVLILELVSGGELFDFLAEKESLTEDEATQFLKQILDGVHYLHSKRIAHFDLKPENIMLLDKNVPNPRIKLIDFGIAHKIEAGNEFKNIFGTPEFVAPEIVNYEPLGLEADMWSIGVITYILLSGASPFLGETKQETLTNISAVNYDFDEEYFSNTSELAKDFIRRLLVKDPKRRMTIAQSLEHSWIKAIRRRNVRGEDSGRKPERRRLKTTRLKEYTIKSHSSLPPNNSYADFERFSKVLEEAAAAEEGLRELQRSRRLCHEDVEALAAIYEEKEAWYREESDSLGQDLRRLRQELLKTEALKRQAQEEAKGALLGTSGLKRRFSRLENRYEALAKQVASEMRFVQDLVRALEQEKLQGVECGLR
Sequence of Epidermal growth factor receptor (Homo sapiens), P00533 [L858R,T790M] (P00533 whole entry T790M/L858R, looked up): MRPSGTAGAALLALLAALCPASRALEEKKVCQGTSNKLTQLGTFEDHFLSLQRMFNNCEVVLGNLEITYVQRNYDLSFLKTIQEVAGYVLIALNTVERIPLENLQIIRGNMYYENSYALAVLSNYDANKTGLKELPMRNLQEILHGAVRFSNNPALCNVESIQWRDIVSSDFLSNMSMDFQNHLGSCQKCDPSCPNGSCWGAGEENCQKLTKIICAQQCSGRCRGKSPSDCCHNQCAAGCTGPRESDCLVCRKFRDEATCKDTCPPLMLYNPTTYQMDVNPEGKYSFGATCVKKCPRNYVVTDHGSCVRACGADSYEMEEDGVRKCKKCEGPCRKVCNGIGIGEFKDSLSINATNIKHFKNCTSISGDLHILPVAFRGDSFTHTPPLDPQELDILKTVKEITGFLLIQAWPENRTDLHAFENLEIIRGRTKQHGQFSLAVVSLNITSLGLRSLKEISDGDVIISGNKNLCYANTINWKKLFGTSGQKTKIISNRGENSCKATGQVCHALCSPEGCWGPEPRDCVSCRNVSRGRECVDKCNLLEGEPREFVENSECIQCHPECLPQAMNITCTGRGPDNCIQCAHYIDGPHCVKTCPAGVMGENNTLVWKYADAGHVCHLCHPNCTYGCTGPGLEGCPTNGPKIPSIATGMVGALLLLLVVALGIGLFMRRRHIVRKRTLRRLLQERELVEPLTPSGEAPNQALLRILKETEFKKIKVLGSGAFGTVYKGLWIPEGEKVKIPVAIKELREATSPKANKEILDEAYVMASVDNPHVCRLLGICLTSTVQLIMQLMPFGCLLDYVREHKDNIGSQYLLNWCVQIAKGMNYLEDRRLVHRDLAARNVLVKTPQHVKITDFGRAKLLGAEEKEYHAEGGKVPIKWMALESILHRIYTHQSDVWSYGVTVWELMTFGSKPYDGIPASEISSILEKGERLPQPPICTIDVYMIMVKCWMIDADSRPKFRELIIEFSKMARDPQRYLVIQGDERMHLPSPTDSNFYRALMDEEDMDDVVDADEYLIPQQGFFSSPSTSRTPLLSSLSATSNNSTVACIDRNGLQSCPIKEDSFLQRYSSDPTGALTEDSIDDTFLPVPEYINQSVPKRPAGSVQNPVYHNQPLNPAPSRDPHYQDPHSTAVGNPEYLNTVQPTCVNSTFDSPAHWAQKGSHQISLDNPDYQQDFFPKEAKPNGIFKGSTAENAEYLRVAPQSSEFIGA
Sequence of Cyclin-dependent kinase 5 (Q00535 whole entry, looked up): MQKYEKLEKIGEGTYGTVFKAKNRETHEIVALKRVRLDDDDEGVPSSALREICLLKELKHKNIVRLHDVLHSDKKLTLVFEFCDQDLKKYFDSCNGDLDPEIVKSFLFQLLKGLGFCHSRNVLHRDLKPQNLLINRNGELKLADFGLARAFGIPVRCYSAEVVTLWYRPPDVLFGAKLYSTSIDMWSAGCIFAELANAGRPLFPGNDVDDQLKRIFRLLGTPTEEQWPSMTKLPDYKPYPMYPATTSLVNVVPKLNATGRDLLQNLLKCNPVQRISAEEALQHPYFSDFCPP
Sequence of Serine/threonine-protein kinase Chk2 (Homo sapiens) (O96017 whole entry): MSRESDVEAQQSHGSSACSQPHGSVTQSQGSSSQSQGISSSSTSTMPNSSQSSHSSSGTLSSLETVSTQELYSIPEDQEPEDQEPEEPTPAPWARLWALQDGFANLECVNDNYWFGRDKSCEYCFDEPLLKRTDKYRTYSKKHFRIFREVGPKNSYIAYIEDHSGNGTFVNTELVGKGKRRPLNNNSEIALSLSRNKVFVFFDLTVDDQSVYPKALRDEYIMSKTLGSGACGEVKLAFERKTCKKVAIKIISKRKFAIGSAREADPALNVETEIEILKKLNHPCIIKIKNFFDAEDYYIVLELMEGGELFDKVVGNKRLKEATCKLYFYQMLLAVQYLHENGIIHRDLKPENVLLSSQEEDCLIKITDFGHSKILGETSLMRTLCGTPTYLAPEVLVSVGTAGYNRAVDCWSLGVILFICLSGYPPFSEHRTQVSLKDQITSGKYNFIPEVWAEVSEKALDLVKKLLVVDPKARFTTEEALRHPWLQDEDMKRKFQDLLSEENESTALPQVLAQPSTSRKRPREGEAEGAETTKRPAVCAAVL
Sequence of Vascular endothelial growth factor receptor 2 (P35968 whole entry): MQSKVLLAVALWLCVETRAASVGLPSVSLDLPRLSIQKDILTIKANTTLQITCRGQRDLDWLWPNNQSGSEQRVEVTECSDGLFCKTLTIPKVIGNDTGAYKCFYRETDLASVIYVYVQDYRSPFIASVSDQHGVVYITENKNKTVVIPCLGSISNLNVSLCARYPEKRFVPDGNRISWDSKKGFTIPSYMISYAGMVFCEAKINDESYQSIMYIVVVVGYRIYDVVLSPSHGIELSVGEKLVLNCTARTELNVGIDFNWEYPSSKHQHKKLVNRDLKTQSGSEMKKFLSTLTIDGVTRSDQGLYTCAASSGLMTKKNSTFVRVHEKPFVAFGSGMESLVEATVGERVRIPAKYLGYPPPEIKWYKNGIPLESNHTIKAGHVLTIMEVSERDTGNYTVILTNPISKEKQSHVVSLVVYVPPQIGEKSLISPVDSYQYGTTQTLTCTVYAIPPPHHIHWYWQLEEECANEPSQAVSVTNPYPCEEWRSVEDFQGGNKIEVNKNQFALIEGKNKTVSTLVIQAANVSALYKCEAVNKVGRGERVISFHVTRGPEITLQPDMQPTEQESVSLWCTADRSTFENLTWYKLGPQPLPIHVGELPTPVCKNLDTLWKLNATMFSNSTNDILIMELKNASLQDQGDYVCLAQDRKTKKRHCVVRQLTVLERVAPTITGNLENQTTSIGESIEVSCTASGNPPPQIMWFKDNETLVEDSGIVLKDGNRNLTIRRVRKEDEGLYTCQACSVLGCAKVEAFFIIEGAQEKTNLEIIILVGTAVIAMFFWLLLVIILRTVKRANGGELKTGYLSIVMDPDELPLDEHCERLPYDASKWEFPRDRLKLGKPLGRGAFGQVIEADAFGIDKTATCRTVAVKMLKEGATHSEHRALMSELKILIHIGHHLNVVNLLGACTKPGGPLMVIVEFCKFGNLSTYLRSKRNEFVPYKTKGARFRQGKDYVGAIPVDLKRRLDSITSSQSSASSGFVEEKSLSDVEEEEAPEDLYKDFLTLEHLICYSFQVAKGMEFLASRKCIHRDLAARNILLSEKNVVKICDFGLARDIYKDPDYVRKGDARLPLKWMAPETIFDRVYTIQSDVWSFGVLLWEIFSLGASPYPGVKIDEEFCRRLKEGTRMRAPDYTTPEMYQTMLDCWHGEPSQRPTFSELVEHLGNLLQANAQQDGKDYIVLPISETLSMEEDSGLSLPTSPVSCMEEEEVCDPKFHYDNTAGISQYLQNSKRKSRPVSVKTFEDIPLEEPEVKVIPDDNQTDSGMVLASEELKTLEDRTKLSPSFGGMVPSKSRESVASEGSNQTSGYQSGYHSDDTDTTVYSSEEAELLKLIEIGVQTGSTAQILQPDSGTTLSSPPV
Sequence of Calcium/calmodulin-dependent protein kinase kinase 2 (Homo sapiens) (Q96RR4 2-588 limits assumed): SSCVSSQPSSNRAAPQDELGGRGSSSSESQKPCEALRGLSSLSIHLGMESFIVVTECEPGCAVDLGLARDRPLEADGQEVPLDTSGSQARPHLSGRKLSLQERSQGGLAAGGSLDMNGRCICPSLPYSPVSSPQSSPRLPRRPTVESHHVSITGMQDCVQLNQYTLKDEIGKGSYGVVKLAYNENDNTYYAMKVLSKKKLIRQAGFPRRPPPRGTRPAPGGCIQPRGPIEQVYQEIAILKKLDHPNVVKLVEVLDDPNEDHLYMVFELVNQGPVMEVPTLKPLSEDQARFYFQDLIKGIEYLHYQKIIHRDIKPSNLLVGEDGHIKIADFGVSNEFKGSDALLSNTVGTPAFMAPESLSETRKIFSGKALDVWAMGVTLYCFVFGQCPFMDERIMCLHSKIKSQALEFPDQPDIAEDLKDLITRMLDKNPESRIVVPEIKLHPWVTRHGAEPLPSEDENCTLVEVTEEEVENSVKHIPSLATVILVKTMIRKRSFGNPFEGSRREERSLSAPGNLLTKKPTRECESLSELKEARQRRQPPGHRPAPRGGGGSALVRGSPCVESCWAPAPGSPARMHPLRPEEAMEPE

`Cn1cc(-n2cnc3c(NCc4nc5cc(Cl)c(Cl)cc5[nH]4)nc(N4CCOCC4)nc32)cn1` had a % of control in test [1] of 0.298%. Turning to `Cc1cc([C@@H](C)Nc2ccccc2C(=O)O)c2nc(N3CCOCC3)cc(=O)n2c1` [AZD-6482], the % of control in test [2] came out at 99%; in [3] it was 100%.

As to `O=C(NOC[C@H](O)CO)c1ccc(F)c(F)c1Nc1ccc(I)cc1F`, the % of control in [4] was determined as 72%; in test [5], 100%. The compound `N#Cc1cccc(-c2c[nH]c3ncnc(N4CCOCC4)c23)c1` gave a % of control in test [6] of 100%. In test [7], the % of inhibition is -9%.

For the compound `CC[C@@H]1[C@H](F)C(=O)N[C@@H]1COc1nccc2cc(C(N)=O)c(OC)cc12` [ZIMLOVISERTIB], in [8], the “% of inhibition” value is -4.2%. In the case of `Cc1cnc(Nc2ccc(F)cc2Cl)nc1-c1c[nH]c(C(=O)N[C@H](CO)c2cccc(Cl)c2)c1`, in test [9], the % of inhibition turned out to be 3%. In test [10], `CCN(CC)CCCCNc1ncc2cc(-c3cc(OC)cc(OC)c3)c(NC(=O)NC(C)(C)C)nc2n1` registered a % of control of 100%. For the compound `CC(=O)Nc1cccc(-n2c(=O)n(C3CC3)c(=O)c3c(Nc4ccc(I)cc4F)n(C)c(=O)c(C)c32)c1`, the % of control in test [11] amounted to 98%. Take `COc1cc(Nc2nc(C)cc(-c3cnn4nc(OC)ccc34)n2)cc(C(F)(F)F)c1`: the % of control in [12] came to 71%.

On to `Cc1cc(F)c(C(=O)Nc2cccc(-c3nncn3C(C)C)n2)cc1-n1cnc(C2CC2)c1`, for which the % of control in test [13] is 100%. For `C=CC(=O)Nc1cc(-n2c(=O)ccc3cnc4ccc(-c5ccc(NS(C)(=O)=O)cc5)cc4c32)ccc1C`, the % of control in test [14] (at 1 µM) was determined as 29%; in [14] (at 10 µM), 6%.
